Where no end group is shown, it is not given here.
How the values were obtained:
[1] = system: NMDA-evoked currents in cultured rat embryonic hippocampal neurons (NMDAr)
[2] = system: voltage-dependent Ca^+2 channels; settings: 1 µM; ref [40]; cited from earlier work
[3] = system: voltage-dependent Na^+ channels; settings: 1 µM; ref [40]; cited from earlier work
NMDA/GluN2B = settings: Ro 25-6981 1 µM; ref [40]; cited from earlier work
[4] = system: NMDA-evoked currents in hippocampal neurons; settings: cited from earlier work
[5] = system: NMDA-evoked currents in cortical neurons; settings: cited from earlier work
GluN1a–GluN2B = settings: cited from earlier work
[6] = system: NMDAr containing the GluN2B subunit; settings: cited from earlier work

Compound | block of NMDA-evoked currents [1] | reversibility of block [1] | use-dependence of block [1] | effect on voltage-dependent Ca^+2 channels [2] | effect on voltage-dependent Na^+ channels [3] | block of NMDA-evoked currents, percent (GluN2B blocker) [1] | 1 µM relative to the concentration producing 50% inhibition of NMDA/GluN2B-mediated currents (NMDA/GluN2B) | IC50 [4] | IC50 [5] | recovery of NMDA-evoked current after washout [5] | reversibility [5] | IC50 (GluN1a–GluN2B) | recovery of NMDA-evoked currents after washout (GluN1a–GluN2B) | selectivity for NMDAr containing the GluN2B subunit [6]
C[C@]12N[C@H](Cc3ccccc31)c1ccccc12 [(+)MK-801, Dizocilpine] | blocked the NMDA-evoked currents | irreversible | increased with exposures to the blocker | – | – | – | – | – | – | – | – | – | – | –
C[C@@H](CN1CCC(Cc2ccccc2)CC1)[C@@H](O)c1ccc(O)cc1 [Ro 25-6981] | – | no reversibility following 4 min of washout | use-dependent | minimal or no effects | minimal or no effects | 70% | 100 fold | – | – | – | – | – | – | –
conantokin-G: 17 amino acid peptide (MW 2264.2 Da), cone snail toxin selective for NMDAr containing GluN2B (GEEELQENQELIREKSN; ends and bridges not checked; UniProt P07231 81-97, looked up) | – | – | – | – | – | – | – | 480 nM | 480 nM | about 10% | very slow and incomplete reversibility | 100 nM | about 80% | selective for NMDAr containing the GluN2B subunit

— PMC5433008 (BMC Neuroscience, 2017)
